Converted amounts (≈) assume the structure as drawn. Where only a bound is given, the exact number is not on record here.

Common to all, as to type: functional
In one experiment the test system is Moraxella catarrhalis. The experiment can be described thus: Antibacterial activity against Moraxella catarrhalis […].
For a further experiment, the system named is Bacillus cereus. Briefly: Antibacterial activity against Bacillus cereus ATCC 11778.
For experiment [1], the system named is Candida albicans. The experiment can be described thus: Antifungal activity against Candida albicans ATCC 10231.
In the next experiment the test system is Cryptococcus neoformans. The experiment can be described thus: Antifungal activity against Cryptococcus neoformans ATCC 90112.
The next experiment concerns Staphylococcus aureus. The experiment can be described thus: Antibacterial activity against Staphylococcus aureus ATCC 2587.
The next experiment concerns Escherichia coli. The experiment can be described thus: Antibacterial activity against Escherichia coli ATCC 8739.
Another experiment concerns Bacillus subtilis. The experiment can be described thus: Antibacterial activity against Bacillus subtilis.
The test system of experiment [2] is Candida albicans. Briefly: Antifungal activity against Candida albicans.
The test system of a further experiment is Nakaseomyces glabratus. Briefly: Antifungal activity against Candida glabrata.

By MIC is commonly meant the least concentration at which growth counts as inhibited. As for `COc1cc2oc3ccc(Cl)cc3c(=O)c2cc1OC`, the minimal inhibitory concentration (MIC) was 625 µg/mL (≈ 2150 µM) with Moraxella catarrhalis; 312 µg/mL (≈ 1070 µM) against Bacillus cereus; 156 µg/mL (≈ 537 µM) in the experiment with Candida albicans [1]; 78.1 µg/mL (≈ 269 µM) in the experiment with Cryptococcus neoformans; 117 µg/mL (≈ 403 µM) with Staphylococcus aureus; 312 µg/mL (≈ 1070 µM) against Escherichia coli.
On to `CC1(C)C=Cc2c(cc3oc4c(O)cccc4c(=O)c3c2O)O1`, for which the MIC against Bacillus subtilis was found to be 4.6 µM (≈ 1.43 µg/mL).
Turning to `COC1=CC2(OC)Oc3ccc(Br)cc3C(=O)C2=CC1=O` (centres undefined), the minimal inhibitory concentration (MIC) in the experiment with Moraxella catarrhalis is 125 µg/mL (≈ 356 µM); against Bacillus cereus, 31.3 µg/mL (≈ 89.1 µM); in the experiment with Candida albicans [1], 31.3 µg/mL (≈ 89.1 µM); against Cryptococcus neoformans, 15.6 µg/mL (≈ 44.4 µM); with Staphylococcus aureus, 62.5 µg/mL (≈ 178 µM); against Escherichia coli, 188 µg/mL (≈ 534 µM).
Turning to `COC12C=CC(=O)C=C1C(=O)c1cc(Cl)ccc1O2` (centres undefined), the minimal inhibitory concentration (MIC) is 156 µg/mL (≈ 565 µM) with Moraxella catarrhalis; 156 µg/mL (≈ 565 µM) with Bacillus cereus; 156 µg/mL (≈ 565 µM) with Candida albicans [1]; 7.8 µg/mL (≈ 28.2 µM) in the experiment on Cryptococcus neoformans; 156 µg/mL (≈ 565 µM) in the experiment on Staphylococcus aureus; 312 µg/mL (≈ 1130 µM) in the experiment with Escherichia coli.
Compound `COC1=CC(=O)C[C@@H](C)[C@]12Oc1c(Cl)c(OC)cc(OC)c1C2=O` [GRISEOFULVIN] gave a minimal inhibitory concentration (MIC) against Candida albicans [2] of 20 µg/mL (≈ 56.7 µM).
Regarding `COC12C=CC(=O)C=C1C(=O)c1ccccc1O2` (centres undefined), the minimal inhibitory concentration (MIC) in the experiment on Moraxella catarrhalis was found to be 125 µg/mL (≈ 516 µM); in the experiment with Bacillus cereus it was 31.3 µg/mL (≈ 129 µM); against Candida albicans [1], 3.6 µg/mL (≈ 14.9 µM); against Cryptococcus neoformans, 3.6 µg/mL (≈ 14.9 µM); in the experiment on Staphylococcus aureus, 93.7 µg/mL (≈ 387 µM); with Escherichia coli, 125 µg/mL (≈ 516 µM).
Turning to `CC(C)=CCc1cccc2c(=O)c3c(O)cc4c(c3oc12)C=CC(C)(C)O4` [LAURENTIXANTHONE A], in the experiment on Nakaseomyces glabratus, the MIC was 2.44 µM (≈ 0.884 µg/mL).
As for `COc1cc2oc3ccccc3c(=O)c2cc1OC`, the minimum inhibitory concentration (MIC) against Moraxella catarrhalis stood at 125 µg/mL (≈ 488 µM); against Bacillus cereus, 46.9 µg/mL (≈ 183 µM); in the experiment with Candida albicans [1], 31.3 µg/mL (≈ 122 µM); against Cryptococcus neoformans, 31.3 µg/mL (≈ 122 µM); with Staphylococcus aureus it was 62.5 µg/mL (≈ 244 µM); against Escherichia coli it was 125 µg/mL (≈ 488 µM).
For the compound `COc1ccc2oc3ccc(Cl)cc3c(=O)c2c1`, the MIC in the experiment with Moraxella catarrhalis was found to be 1250 µg/mL (≈ 4800 µM); with Bacillus cereus, 625 µg/mL (≈ 2400 µM); in the experiment with Candida albicans [1] it was 234 µg/mL (≈ 899 µM); in the experiment on Cryptococcus neoformans, 156 µg/mL (≈ 599 µM); in the experiment on Staphylococcus aureus, 234 µg/mL (≈ 899 µM); against Escherichia coli, 625 µg/mL (≈ 2400 µM).
As to `COC12Oc3ccc(Cl)cc3C(=O)C1=CC(=O)c1ccccc12` (centres undefined), the MIC turned out to be 312 µg/mL (≈ 956 µM) against Moraxella catarrhalis; 78.1 µg/mL (≈ 239 µM) in the experiment on Bacillus cereus; 469 µg/mL (≈ 1430 µM) against Candida albicans [1]; 29.2 µg/mL (≈ 89.4 µM) in the experiment with Cryptococcus neoformans; 19.5 µg/mL (≈ 59.7 µM) with Staphylococcus aureus; 469 µg/mL (≈ 1430 µM) against Escherichia coli.
Turning to `COC1=CC2(OC)Oc3ccc(Cl)cc3C(=O)C2=CC1=O` (centres undefined), the MIC against Moraxella catarrhalis stood at 156 µg/mL (≈ 509 µM); against Bacillus cereus, 39 µg/mL (≈ 127 µM); with Candida albicans [1], 20.8 µg/mL (≈ 67.8 µM); against Cryptococcus neoformans, 15.6 µg/mL (≈ 50.9 µM); against Staphylococcus aureus, 39 µg/mL (≈ 127 µM); in the experiment on Escherichia coli, 156 µg/mL (≈ 509 µM).
With `COc1ccc2oc3ccccc3c(=O)c2c1`, the minimum inhibitory concentration (MIC) in the experiment with Moraxella catarrhalis worked out at 625 µg/mL (≈ 2760 µM); against Bacillus cereus, 312 µg/mL (≈ 1380 µM); against Candida albicans [1] it was 156 µg/mL (≈ 690 µM); against Cryptococcus neoformans, 78.1 µg/mL (≈ 345 µM); with Staphylococcus aureus, 156 µg/mL (≈ 690 µM); in the experiment on Escherichia coli, 312 µg/mL (≈ 1380 µM).
For the compound `COc1c(O)ccc2oc3ccccc3c(=O)c12`, the MIC in the experiment on Moraxella catarrhalis amounted to 125 µg/mL (≈ 516 µM); in the experiment on Bacillus cereus, 31.3 µg/mL (≈ 129 µM); against Candida albicans [1], 31.3 µg/mL (≈ 129 µM); with Cryptococcus neoformans it was 15.6 µg/mL (≈ 64.4 µM); against Staphylococcus aureus it was 125 µg/mL (≈ 516 µM); in the experiment with Escherichia coli, 125 µg/mL (≈ 516 µM).
On to `COC1=CC2(Oc3ccc(Cl)cc3C2=O)C(OC)=CC1=O` (centres undefined), for which the MIC in the experiment on Moraxella catarrhalis turned out to be 312 µg/mL (≈ 1020 µM); with Bacillus cereus, 156 µg/mL (≈ 509 µM); against Candida albicans [1], 156 µg/mL (≈ 509 µM); in the experiment on Cryptococcus neoformans it was 39 µg/mL (≈ 127 µM); against Staphylococcus aureus it was 156 µg/mL (≈ 509 µM); with Escherichia coli, 312 µg/mL (≈ 1020 µM).
With `COC1=CC2(Oc3ccc(Br)cc3C2=O)C(OC)=CC1=O` (centres undefined), the minimum inhibitory concentration (MIC) against Moraxella catarrhalis stood at 125 µg/mL (≈ 356 µM); with Bacillus cereus it was 31.3 µg/mL (≈ 89.1 µM); in the experiment with Candida albicans [1] it was 31.3 µg/mL (≈ 89.1 µM); against Cryptococcus neoformans, 15.6 µg/mL (≈ 44.4 µM); with Staphylococcus aureus, 62.5 µg/mL (≈ 178 µM); against Escherichia coli, 62.5 µg/mL (≈ 178 µM).
As for `COC12C=CC(=O)C=C1C(=O)c1cc(Br)ccc1O2` (centres undefined), the minimal inhibitory concentration (MIC) in the experiment with Moraxella catarrhalis was 125 µg/mL (≈ 389 µM); in the experiment on Bacillus cereus it was 31.3 µg/mL (≈ 97.5 µM); against Candida albicans [1] it was 7.8 µg/mL (≈ 24.3 µM); in the experiment with Cryptococcus neoformans, 15.6 µg/mL (≈ 48.6 µM); in the experiment with Staphylococcus aureus, 62.5 µg/mL (≈ 195 µM); with Escherichia coli it was 62.5 µg/mL (≈ 195 µM).
Consider `O=C(O)c1cn(C2CC2)c2cc(N3CCNCC3)c(F)cc2c1=O` [CIPROFLOXACIN], for which the MIC came to 1.25 µg/mL (≈ 3.77 µM) against Moraxella catarrhalis, 0.08 µg/mL (≈ 0.241 µM) in the experiment on Bacillus cereus and 1.25 µg/mL (≈ 3.77 µM) against Staphylococcus aureus.
As for `COC12Oc3ccccc3C(=O)C1=CC(=O)c1ccccc12` (centres undefined), the minimum inhibitory concentration (MIC) with Moraxella catarrhalis worked out at 78.1 µg/mL (≈ 267 µM); with Bacillus cereus it was 19.5 µg/mL (≈ 66.7 µM); in the experiment with Candida albicans [1], 78.1 µg/mL (≈ 267 µM); against Cryptococcus neoformans it was 19.5 µg/mL (≈ 66.7 µM); against Staphylococcus aureus it was 78.1 µg/mL (≈ 267 µM); in the experiment with Escherichia coli, 156 µg/mL (≈ 534 µM).
With `COC1=CC2(Oc3ccc(-c4ccccc4)cc3C2=O)C(OC)=CC1=O` (centres undefined), the minimum inhibitory concentration (MIC) with Moraxella catarrhalis was greater than 250 µg/mL; against Bacillus cereus, 46.9 µg/mL (≈ 135 µM); against Candida albicans [1] it was 31.3 µg/mL (≈ 89.9 µM); against Cryptococcus neoformans, 23.4 µg/mL (≈ 67.2 µM); against Staphylococcus aureus, 62.5 µg/mL (≈ 179 µM); against Escherichia coli it was 125 µg/mL (≈ 359 µM).
For `O=c1c2cc(O)ccc2oc2ccc(Br)cc12`, the minimum inhibitory concentration (MIC) in the experiment on Moraxella catarrhalis is greater than 250 µg/mL; with Bacillus cereus, 31.3 µg/mL (≈ 108 µM); against Candida albicans [1], 31.3 µg/mL (≈ 108 µM); against Cryptococcus neoformans, 11.7 µg/mL (≈ 40.2 µM); against Staphylococcus aureus, 250 µg/mL (≈ 859 µM); in the experiment with Escherichia coli, 125 µg/mL (≈ 429 µM).
With `COc1cc2oc3ccc(Br)cc3c(=O)c2cc1O`, the MIC against Moraxella catarrhalis was 125 µg/mL (≈ 389 µM); in the experiment on Bacillus cereus, 31.3 µg/mL (≈ 97.5 µM); against Candida albicans [1], 31.3 µg/mL (≈ 97.5 µM); against Cryptococcus neoformans, 15.6 µg/mL (≈ 48.6 µM); against Staphylococcus aureus, 62.5 µg/mL (≈ 195 µM); with Escherichia coli it was 125 µg/mL (≈ 389 µM).
In the case of `COC1=CC2(Oc3ccc(-c4ccccc4C=O)cc3C2=O)C(OC)=CC1=O` (centres undefined), the minimum inhibitory concentration (MIC) in the experiment on Moraxella catarrhalis was determined as 125 µg/mL (≈ 332 µM); with Bacillus cereus, 15.6 µg/mL (≈ 41.4 µM); against Candida albicans [1], 31.3 µg/mL (≈ 83.2 µM); in the experiment with Cryptococcus neoformans, 15.6 µg/mL (≈ 41.4 µM); in the experiment on Staphylococcus aureus, 15.6 µg/mL (≈ 41.4 µM); with Escherichia coli, 62.5 µg/mL (≈ 166 µM).

The record behind these values is ChEMBL document CHEMBL1921755, “The synthesis of xanthones, xanthenediones, and spirobenzofurans: their antibacterial and antifungal activity” (2011).
